Measured values reported in ChEMBL document CHEMBL2218064, “Structure-activity relationship data for chemical series of antagonists of the P2X7 receptor (Supplementary Bioactivity Data for publication CHEMBL1157114)”.

Molecular target: T1, P2X purinoceptor 7 (Homo sapiens, UniProt Q99572)
T1 sequence (Q99572 whole entry): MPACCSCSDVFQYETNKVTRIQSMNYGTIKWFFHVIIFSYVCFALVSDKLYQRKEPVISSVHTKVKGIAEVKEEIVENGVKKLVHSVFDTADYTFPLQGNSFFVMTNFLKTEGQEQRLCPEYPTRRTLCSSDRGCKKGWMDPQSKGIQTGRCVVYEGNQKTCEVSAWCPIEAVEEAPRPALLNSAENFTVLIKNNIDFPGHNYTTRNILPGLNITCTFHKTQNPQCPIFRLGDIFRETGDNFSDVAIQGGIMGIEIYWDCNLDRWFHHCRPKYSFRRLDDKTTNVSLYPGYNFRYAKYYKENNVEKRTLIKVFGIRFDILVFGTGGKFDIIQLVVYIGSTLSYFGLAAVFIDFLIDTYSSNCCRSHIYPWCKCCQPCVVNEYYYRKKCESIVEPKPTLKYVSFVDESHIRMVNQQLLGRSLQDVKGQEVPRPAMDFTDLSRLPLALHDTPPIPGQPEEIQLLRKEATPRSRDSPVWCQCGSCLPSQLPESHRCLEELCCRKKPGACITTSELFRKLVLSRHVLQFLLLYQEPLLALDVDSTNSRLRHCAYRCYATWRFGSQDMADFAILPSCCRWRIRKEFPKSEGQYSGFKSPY
Test: SUPPLEMENTARY: Inhibition of human P2X7 receptor assessed as inhibition of ethidium bromide accumulation. Same assay as CHEMBL1103860

IC50 [nM]	SMILES
39.8	Cc1cc(F)cc(C)c1N1CCN(Cc2ccc(F)cc2Cl)C(=O)C1=O
12.6	Cc1cc(F)cc(C)c1N1CCN(Cc2ccc(Cl)cc2Cl)C(=O)C1=O
50.1	Cc1cc(F)cc(C)c1N1CCN(Cc2cccc(Cl)c2Cl)C(=O)C1=O
316	Cc1cc(F)cc(C)c1N1CCN(Cc2ccc(F)c(F)c2F)C(=O)C1=O
12.6	CN1C(=O)N(c2cncnc2)C[C@H]1C(=O)NCc1cccc(C(F)(F)F)c1Cl
50.1	CN1C(=O)N(c2cncnc2)C[C@H]1C(=O)NCc1ccc(Cl)cc1Cl
251	CN1C(=O)N(c2cncnc2)C[C@H]1C(=O)NCc1ccc(F)cc1Cl
50.1	CN1C(=O)N(CCCN2CCOCC2)CC1C(=O)NCc1cccc(C(F)(F)F)c1Cl (centres undefined)
631	Cc1ncccc1N1CCN(Cc2ccc(F)cc2Cl)C(=O)C1=O
631	Cc1cccnc1N1CCN(Cc2ccc(F)cc2Cl)C(=O)C1=O
6.31	CN1C(=O)N(c2ncccn2)C[C@H]1C(=O)NCc1ccc(Cl)cc1Cl
25.1	CN1C(=O)N(c2ncccn2)C[C@H]1C(=O)NCc1ccc(F)cc1Cl
7.94	CN1C(=O)N(c2ncccn2)C[C@H]1C(=O)NCc1ccc(F)c(F)c1Cl
7.94	Cc1c(Cl)cccc1CNC(=O)[C@@H]1CN(c2ncccn2)C(=O)N1C
20	CN1C(=O)NC[C@H]1C(=O)NCc1ccc(F)c(F)c1Cl
5.01	Cc1cccnc1N1C[C@@H](C(=O)NCc2cccc(C(F)(F)F)c2Cl)N(C)C1=O
15.8	Cc1cccnc1N1C[C@@H](C(=O)NCc2ccc(Cl)cc2Cl)N(C)C1=O
25.1	Cc1cccnc1N1C[C@@H](C(=O)NCc2ccc(F)c(F)c2Cl)N(C)C1=O
31.6	Cc1ncccc1N1C[C@@H](C(=O)NCc2ccc(F)c(F)c2Cl)N(C)C1=O
39.8	Cc1ncccc1N1C[C@@H](C(=O)NCc2cccc(Cl)c2Cl)N(C)C1=O
31.6	Cc1cc(N2C[C@@H](C(=O)NCc3ccc(F)c(F)c3Cl)N(C)C2=O)ccn1
200	Cc1nc[nH]c1CN1C[C@@H](C(=O)NCc2ccc(F)c(F)c2Cl)N(C)C1=O

IC50 [nM]	SMILES
158	O=C1CN(C(=O)c2cccc(Cl)c2Cl)CCN1Cc1ccc(F)cc1Cl
63.1	CN1C(=O)N(CCN2CCOCC2)C[C@H]1C(=O)NCc1ccc(F)c(F)c1Cl
7.94	CC(C)c1ccccc1N1CCN(Cc2ccc(F)cc2Cl)C(=O)C1=O
158	O=C1C(=O)N(c2cc(F)ccc2F)CCN1Cc1ccc(F)cc1Cl
158	Cc1cccc(N2CCN(Cc3ccc(F)cc3Cl)C(=O)C2=O)c1F
126	O=C(c1cccc(Cl)c1Cl)N1CCN(c2ccc(F)cc2F)C(=O)C1
794	O=C(c1ccc(Cl)cc1Cl)N1CCN(c2ccc(F)cc2F)C(=O)C1
200	O=C1C(=O)N(c2ccc(F)cc2Cl)CCN1Cc1ccc(F)cc1Cl
501	O=C1C(=O)N(c2cccc3ncccc23)CCN1Cc1ccc(F)cc1Cl
7.94	O=C1C(=O)N(c2ccccc2I)CCN1Cc1ccc(F)cc1Cl
158	C[C@H]1CN(Cc2ccc(Cl)cc2Cl)C(=O)C(=O)N1c1ccccc1
251	Cc1cc(F)ccc1N1CCN(Cc2ccc(F)cc2Cl)C(=O)C1=O
15.8	CN1C(=O)N(c2cn(C)cn2)C[C@H]1C(=O)NCc1ccc(F)c(F)c1Cl
39.8	CN1C(=O)N(c2nccn2C)C[C@H]1C(=O)NCc1ccc(F)c(F)c1Cl
20	CN1C(=O)N(c2ccnn2C)C[C@H]1C(=O)NCc1ccc(F)c(F)c1Cl
63.1	CN1C[C@@H](C(=O)NCc2cccc(C(F)(F)F)c2Cl)NC1=O
794	CN1C[C@@H](C(=O)NCc2ccc(F)cc2Cl)NC1=O
25.1	COc1cccc(N2CCN(Cc3ccc(F)cc3Cl)C(=O)C2=O)c1Cl
200	Cc1c(F)ccc(N2CCN(Cc3ccc(F)cc3Cl)C(=O)C2=O)c1C
25.1	CN1C(=O)N(CCN2CCOCC2)CC1C(=O)NCc1cccc(C(F)(F)F)c1Cl (centres undefined)
79.4	CN1C(=O)N(CCN2CCOCC2)CC1C(=O)NCc1ccc(Cl)cc1Cl (centres undefined)
251	CN1C(=O)N(CCN2CCOCC2)CC1C(=O)NCc1ccc(F)cc1Cl (centres undefined)

Second part, the compound before the results:

SMILES	IC50 [nM]
CC(C)c1ccccc1N1CCN(C(=O)c2cccc(Cl)c2Cl)CC1=O	10
Cc1cc(F)ccc1N1CCN(C(=O)c2cccc(Cl)c2Cl)CC1=O	50.1
Cc1cc(F)cc(C)c1N1CCN(Cc2cccc(C(F)(F)F)c2Cl)C(=O)C1=O	50.1
Cc1ccc(N2CCOCC2)cc1N1CCN(C(=O)c2cccc(C(F)(F)F)c2Cl)CC1=O	15.8
Cc1cc(F)cc(C)c1N1CCN(Cc2ccc(F)cc2C(F)(F)F)C(=O)C1=O	79.4
CN(C)c1ccccc1N1CCN(Cc2ccc(F)cc2Cl)C(=O)C1=O	63.1
Cc1cccc(C)c1N1CCN(Cc2cccc(C(F)(F)F)c2Cl)C(=O)C1=O	6.31
Cc1cccc(C)c1N1CCN(Cc2cccc(Cl)c2Cl)C(=O)C1=O	6.31
Cc1ccc(N2CCOCC2)cc1N1CCN(Cc2ccc(F)cc2Cl)C(=O)C1=O	31.6
Cc1ccc(C)c(N2CCN(Cc3ccc(F)cc3Cl)C(=O)C2=O)n1	200
Cc1ccccc1N1CCN(C(=O)c2ccc(Cl)cc2Cl)CC1=O	63.1
O=C(c1cccc(Cl)c1Cl)N1CCN(c2ccc(F)cc2)C(=O)C1	100
Cc1c(CN2CCOCC2)cccc1N1CCN(Cc2ccc(F)cc2Cl)C(=O)C1=O	100
Cc1ccccc1N1CCN(C(=O)c2cccc(C(F)(F)F)c2Cl)CC1=O	10
O=C(c1cccc(Cl)c1Cl)N1CCN(c2cccc(Cl)c2)C(=O)C1	100
O=C1C(=O)N(c2ccccc2N2CCCCC2)CCN1Cc1ccc(F)cc1Cl	50.1
O=C(c1cccc(Cl)c1Cl)N1CCN(c2ccc(Cl)cc2)C(=O)C1	126
Cc1c(OCCN2CCOCC2)cccc1N1CCN(Cc2ccc(F)cc2Cl)C(=O)C1=O	100
Cc1c(N2CCOCC2)cccc1N1CCN(Cc2ccc(F)cc2Cl)C(=O)C1=O	31.6
Cc1ccc(N2CCOCC2)c(N2CCN(Cc3ccc(F)cc3Cl)C(=O)C2=O)c1	50.1
O=C1C(=O)N(c2ccccc2N2CCCC2)CCN1Cc1ccc(F)cc1Cl	39.8
O=C(c1ccc(F)cc1Cl)N1CCN(c2ccccc2Cl)C(=O)C1	39.8
O=C(c1ccc(Cl)cc1Cl)N1CCN(c2ccccc2Cl)C(=O)C1	25.1
O=C(c1cccc(Cl)c1Cl)N1CCN(c2ccc(F)cc2Cl)C(=O)C1	31.6
O=C(c1cccc(C(F)(F)F)c1Cl)N1CCN(c2ccccc2Cl)C(=O)C1	5.01
COc1c(Cl)cccc1N1CCN(Cc2ccc(F)cc2Cl)C(=O)C1=O	63.1
O=C1C(=O)N(c2cccc3[nH]ccc23)CCN1Cc1ccc(F)cc1Cl	12.6
O=C(c1cccc(C(F)(F)F)c1Cl)N1CCN(c2ccc(F)cc2Cl)C(=O)C1	15.8

SMILES	IC50 [nM]
O=C(c1cccc(C(F)(F)F)c1Cl)N1CCN(c2ccc(F)cc2)C(=O)C1	25.1
CN1CCN(C(=O)c2cccc(Cl)c2Cl)CC1=O	200
O=C1C(=O)N(c2cc(Cl)ccc2N2CCOCC2)CCN1Cc1ccc(F)cc1Cl	31.6
COc1c(Br)cccc1N1CCN(Cc2ccc(F)cc2Cl)C(=O)C1=O	50.1
CCc1ccccc1N1CCN(Cc2ccc(F)cc2Cl)C(=O)C1=O	10
CCN1CCN(C(=O)c2cccc(Cl)c2Cl)CC1=O	200
CC(C)N1CCN(C(=O)c2cccc(Cl)c2Cl)CC1=O	126
O=C1C(=O)N(c2cc(F)ccc2N2CCOCC2)CCN1Cc1ccc(F)cc1Cl	15.8
O=C1C(=O)N(c2cc(Br)ccc2Cl)CCN1Cc1ccc(F)cc1Cl	10
O=C1C(=O)N(c2cccc3c2OCCO3)CCN1Cc1ccc(F)cc1Cl	251
CC(C)(C)c1ccccc1N1CCN(Cc2ccc(F)cc2Cl)C(=O)C1=O	20
O=C1C(=O)N(c2ccccc2-n2cccc2)CCN1Cc1ccc(F)cc1Cl	100
O=C1C(=O)N(c2ccccc2OC(F)(F)F)CCN1Cc1ccc(F)cc1Cl	31.6
COc1ccc(Br)cc1N1CCN(Cc2ccc(F)cc2Cl)C(=O)C1=O	79.4
O=C(c1cccc(C(F)(F)F)c1Cl)N1CCN(c2ccc(F)cc2F)C(=O)C1	63.1
O=C1C(=O)N(c2cncc3ccccc23)CCN1Cc1ccc(F)cc1Cl	158
Cc1cccc(C)c1N1CCN(Cc2ccc(F)cc2Cl)C(=O)C1=O	3.16
CN1CCOc2cccc(N3CCN(Cc4ccc(F)cc4Cl)C(=O)C3=O)c21	251
O=C1C(=O)N(c2ccccc2C(F)(F)F)CCN1Cc1ccc(F)cc1Cl	15.8
O=C(c1cccc(Cl)c1Cl)N1CCN(c2cccc3ccccc23)C(=O)C1	15.8
COc1ccc(N2CCOCC2)cc1N1CCN(Cc2ccc(F)cc2Cl)C(=O)C1=O	50.1
O=C(c1cccc(C(F)(F)F)c1Cl)N1CCN(c2cccc3ccccc23)C(=O)C1	12.6
O=C1C(=O)N(c2ccccc2-c2ccccc2)CCN1Cc1ccc(F)cc1Cl	126
Cc1c(Br)cccc1N1CCN(Cc2ccc(F)cc2Cl)C(=O)C1=O	50.1
CC(C)c1ccccc1N1CCN(C(=O)c2cccc(C(F)(F)F)c2Cl)CC1=O	7.94
Cc1ccc(N2CCOCC2)cc1N1CCN(C(=O)c2cccc(Cl)c2Cl)CC1=O	15.8
CC(C)c1ccccc1N1CCN(C(=O)c2ccc(F)cc2Cl)CC1=O	31.6
